Laboratory results taken from ChEMBL document CHEMBL3526091, “Pharmacokinetics, metabolism, and excretion of the glycogen synthase kinase-3 inhibitor LY2090314 in rats, dogs, and humans: a case study in rapid clearance by extensive metabolism with low circulating metabolite exposure” (Drug Metab Dispos, 2013).

Legend:
[1] = Drug recovery in bile duct-cannulated Sprague-Dawley rat cage/carcass at 5 mg/kg, iv administered for 30 mins during 0 to 168 hrs time interval by radio analysis; assay type: ADME, organism-based; parameters: dose 5 mg/kg, dosed compound name [14C]LY2090314, route intravenous; conditions: in vivo
[2] = Drug metabolism in Bcrp knockout Sprague-Dawley rat bile at 5 mg/kg, iv administered for 30 mins; assay type: ADME, organism-based; parameters: dose 5 mg/kg, dosed compound name LY2090314, route intravenous; conditions: in vivo, 0.5 h
[3] = Plasma protein binding in beagle dog; assay type: ADME, cell-free, Canis lupus familiaris; parameters: dosed compound name [14C]LY2090314; conditions: read-out: PPB
[4] = Drug recovery in bile duct-cannulated Sprague-Dawley rat assessed as radioactivity in bile during 0 to 12 hrs at 5 mg/kg, iv for 30 mins; assay type: ADME, organism-based; parameters: dose 5 mg/kg, dosed compound name [14C]LY2090314, route intravenous; conditions: in vivo
[5] = system: Plasma; test: Drug recovery in beagle dog plasma assessed as radiochemical peak area at 5 mg/kg, iv administered for 30 mins after 0.5 hrs by radio analysis; assay type: ADME, organism-based, Canis lupus familiaris; parameters: dose 5 mg/kg, dosed compound name [14C]LY2090314, route intravenous; conditions: in vivo
[6] = system: Plasma; test: Drug recovery in beagle dog plasma assessed as radiochemical peak area at 5 mg/kg, iv administered for 30 mins after 2 hrs by radio analysis; assay type: ADME, organism-based, Canis lupus familiaris; parameters: dose 5 mg/kg, dosed compound name [14C]LY2090314, route intravenous; conditions: in vivo
[7] = Elimination half life in Sprague-Dawley rat at 5 mg/kg, iv administered for 30 mins; assay type: ADME, organism-based; parameters: dose 5 mg/kg, dosed compound name [14C]LY2090314, route intravenous; conditions: in vivo, read-out: beta t1/2 (converted)
[8] = Drug recovery in Sprague-Dawley rat feces at 5 mg/kg, iv administered for 30 mins during 0 to 24 hrs time interval by radio analysis; assay type: ADME, organism-based; parameters: dose 5 mg/kg, dosed compound name [14C]LY2090314, route intravenous; conditions: in vivo
[9] = Drug recovery in Sprague-Dawley rat feces at 5 mg/kg, iv administered for 30 mins during 0 to 168 hrs time interval by radio analysis; assay type: ADME, organism-based; parameters: dose 5 mg/kg, dosed compound name [14C]LY2090314, route intravenous; conditions: in vivo
[10] = Drug recovery in Sprague-Dawley rat urine at 5 mg/kg, iv administered for 30 mins during 0 to 24 hrs time interval by radio analysis; assay type: ADME, organism-based; parameters: dose 5 mg/kg, dosed compound name [14C]LY2090314, route intravenous; conditions: in vivo
[11] = Drug recovery in Sprague-Dawley rat urine at 5 mg/kg, iv administered for 30 mins during 0 to 168 hrs time interval by radio analysis; assay type: ADME, organism-based; parameters: dose 5 mg/kg, dosed compound name [14C]LY2090314, route intravenous; conditions: in vivo
[12] = system: Canis familiaris; test: Drug recovery in beagle dog cage at 5 mg/kg, iv administered for 30 mins during 0 to 24 hrs time interval by radio analysis; assay type: ADME, organism-based, Canis lupus familiaris; parameters: dose 5 mg/kg, dosed compound name [14C]LY2090314, route intravenous; conditions: in vivo
[13] = AUC (0 to infinity) in beagle dog at 5 mg/kg, iv administered for 30 mins; assay type: ADME, organism-based, Canis lupus familiaris; parameters: time infinity, dose 5 mg/kg, dosed compound name [14C]LY2090314, route intravenous; conditions: plasma
[14] = system: Canis familiaris; test: Clearance in beagle dog assessed as total radioactivity at 5 mg/kg, iv administered for 30 mins; assay type: ADME, organism-based, Canis lupus familiaris; parameters: dose 5 mg/kg, dosed compound name [14C]LY2090314, route intravenous; conditions: in vivo, 0.5 h
[15] = system: Rattus norvegicus; test: Cmax in Sprague-Dawley rat assessed as total radioactivity at 5 mg/kg, iv administered for 30 mins; assay type: ADME, organism-based; parameters: dose 5 mg/kg, dosed compound name [14C]LY2090314, route intravenous; conditions: in vivo, 0.5 h
[16] = system: Rattus norvegicus; test: Elimination half life in Sprague-Dawley rat assessed as total radioactivity at 5 mg/kg, iv administered for 30 mins; assay type: ADME, organism-based; parameters: dose 5 mg/kg, dosed compound name [14C]LY2090314, route intravenous; conditions: in vivo, 0.5 h
[17] = Tmax in Sprague-Dawley rat at 5 mg/kg, iv administered for 30 mins; assay type: ADME, organism-based; parameters: dose 5 mg/kg, dosed compound name [14C]LY2090314, route intravenous; conditions: in vivo
[18] = Clearance in Sprague-Dawley rat at 5 mg/kg, iv administered for 30 mins; assay type: ADME, organism-based; parameters: dose 5 mg/kg, dosed compound name [14C]LY2090314, route intravenous; conditions: in vivo
[19] = Drug recovery in beagle dog urine at 5 mg/kg, iv administered for 30 mins during 0 to 24 hrs time interval by radio analysis; assay type: ADME, organism-based, Canis lupus familiaris; parameters: dose 5 mg/kg, dosed compound name [14C]LY2090314, route intravenous; conditions: in vivo
[20] = Drug recovery in bile duct-cannulated Sprague-Dawley rat assessed as radioactivity in bile during 0 to 12 hrs at 5 mg/kg, iv administered for 30 mins relative to dosed radioactivity; assay type: ADME, organism-based; parameters: dose 5 mg/kg, dosed compound name [14C]LY2090314, route intravenous; conditions: in vivo
[21] = Drug recovery in bile duct-intact Sprague-Dawley rat assessed as radioactivity in feces during 0 to 24 hrs at 5 mg/kg, iv administered for 30 mins relative to dosed radioactivity; assay type: ADME, organism-based; parameters: dose 5 mg/kg, dosed compound name [14C]LY2090314, route intravenous; conditions: in vivo
[22] = system: Plasma; test: Drug metabolism in Mdr1a knockout Sprague-Dawley rat plasma at 5 mg/kg, iv administered for 30 mins; assay type: ADME, organism-based; parameters: dose 5 mg/kg, dosed compound name LY2090314, route intravenous; conditions: in vivo, 0.5 h
[23] = Drug metabolism in Bcrp knockout Sprague-Dawley rat urine at 5 mg/kg, iv administered for 30 mins; assay type: ADME, organism-based; parameters: dose 5 mg/kg, dosed compound name LY2090314, route intravenous; conditions: in vivo, 0.5 h
[24] = Drug recovery in beagle dog urine at 5 mg/kg, iv administered for 30 mins during 0 to 12 hrs by radio analysis; assay type: ADME, organism-based, Canis lupus familiaris; parameters: dose 5 mg/kg, dosed compound name [14C]LY2090314, route intravenous; conditions: in vivo
[25] = Cmax in cancer patient at 10 mg for 60 mins treated 1/1 cycle/day; assay type: ADME, organism-based; parameters: dose 10 mg, dosed compound name LY2090314; conditions: human, in vivo
[26] = Cmax in cancer patient at 40 mg for 60 mins treated 1/1 cycle/day; assay type: ADME, organism-based; parameters: dose 40 mg, dosed compound name LY2090314; conditions: human, in vivo
[27] = Cmax in cancer patient at 60 mg for 60 mins treated 1/1 cycle/day; assay type: ADME, organism-based; parameters: dose 60 mg, dosed compound name LY2090314; conditions: human, in vivo
[28] = Tmax in cancer patient at 10 mg for 60 mins treated 1/1 cycle/day; assay type: ADME, organism-based; parameters: dosed compound name LY2090314; conditions: human, in vivo
[29] = Tmax in cancer patient at 60 mg for 60 mins treated 1/1 cycle/day; assay type: ADME, organism-based; parameters: dosed compound name LY2090314; conditions: human, in vivo
[30] = Half life in cancer patient at 80 mg for 60 mins treated 1/8 cycle/day; assay type: ADME, organism-based; parameters: dosed compound name LY2090314; conditions: human, in vivo
[31] = organism: Homo sapiens; test: Drug recovery in cancer patient at 80 to 120 mg for 60 mins; assay type: ADME, organism-based; parameters: dosed compound name LY2090314; conditions: in vivo, 1 h
[32] = Plasma protein binding in cancer patient; assay type: ADME, cell-free; parameters: dosed compound name LY2090314; conditions: human, read-out: PPB (converted)
[33] = Drug recovery in bile duct-intact Sprague-Dawley rat assessed as radioactivity in feces during 0 to 24 hrs at 5 mg/kg, iv for 30 mins; assay type: ADME, organism-based; parameters: dose 5 mg/kg, dosed compound name [14C]LY2090314, route intravenous; conditions: in vivo
[34] = Drug recovery in bile duct-cannulated Sprague-Dawley rat feces at 5 mg/kg, iv administered for 30 mins during 0 to 168 hrs time interval by radio analysis; assay type: ADME, organism-based; parameters: dose 5 mg/kg, dosed compound name [14C]LY2090314, route intravenous; conditions: in vivo
[35] = Drug recovery in bile duct-cannulated Sprague-Dawley rat urine at 5 mg/kg, iv administered for 30 mins during 0 to 12 hrs time interval by radio analysis; assay type: ADME, organism-based; parameters: dose 5 mg/kg, dosed compound name [14C]LY2090314, route intravenous; conditions: in vivo
[36] = Drug recovery in bile duct-cannulated Sprague-Dawley rat urine at 5 mg/kg, iv administered for 30 mins during 0 to 168 hrs time interval by radio analysis; assay type: ADME, organism-based; parameters: dose 5 mg/kg, dosed compound name [14C]LY2090314, route intravenous; conditions: in vivo
[37] = Drug recovery in bile duct-cannulated Sprague-Dawley rat bile at 5 mg/kg, iv administered for 30 mins during 0 to 168 hrs time interval by radio analysis; assay type: ADME, organism-based; parameters: dose 5 mg/kg, dosed compound name [14C]LY2090314, route intravenous; conditions: in vivo
[38] = AUC (0 to infinity) in cancer patient at 80 mg for 60 mins treated 1/1 cycle/day; assay type: ADME, organism-based; parameters: dose 80 mg, time infinity, dosed compound name LY2090314; conditions: human, plasma
[39] = AUC (0 to infinity) in cancer patient at 60 mg for 60 mins treated 1/8 cycle/day; assay type: ADME, organism-based; parameters: dose 60 mg, time infinity, dosed compound name LY2090314; conditions: human, plasma
[40] = AUC (0 to infinity) in cancer patient at 120 mg for 60 mins treated 1/8 cycle/day; assay type: ADME, organism-based; parameters: dose 120 mg, time infinity, dosed compound name LY2090314; conditions: human, plasma
[41] = Clearance in cancer patient at 40 mg for 60 mins treated 1/1 cycle/day; assay type: ADME, organism-based; parameters: dosed compound name LY2090314; conditions: human, in vivo
[42] = Clearance in cancer patient at 60 mg for 60 mins treated 1/8 cycle/day; assay type: ADME, organism-based; parameters: dosed compound name LY2090314; conditions: human, in vivo
[43] = Volume of distribution at steady state in cancer patient at 10 mg for 60 mins treated 1/1 cycle/day; assay type: ADME, organism-based; parameters: dosed compound name LY2090314; conditions: human, in vivo, read-out: Vdss
[44] = Volume of distribution at steady state in cancer patient at 20 mg for 60 mins treated 1/1 cycle/day; assay type: ADME, organism-based; parameters: dosed compound name LY2090314; conditions: human, in vivo, read-out: Vdss
[45] = Volume of distribution at steady state in cancer patient at 40 mg for 60 mins treated 1/1 cycle/day; assay type: ADME, organism-based; parameters: dosed compound name LY2090314; conditions: human, in vivo, read-out: Vdss
[46] = Volume of distribution at steady state in cancer patient at 80 mg for 60 mins treated 1/8 cycle/day; assay type: ADME, organism-based; parameters: dosed compound name LY2090314; conditions: human, in vivo, read-out: Vdss
[47] = Half life in cancer patient at 10 mg for 60 mins treated 1/1 cycle/day; assay type: ADME, organism-based; parameters: dosed compound name LY2090314; conditions: human, in vivo
[48] = Half life in cancer patient at 60 mg for 60 mins treated 1/1 cycle/day; assay type: ADME, organism-based; parameters: dosed compound name LY2090314; conditions: human, in vivo
[49] = Half life in cancer patient at 40 mg for 60 mins treated 1/8 cycle/day; assay type: ADME, organism-based; parameters: dosed compound name LY2090314; conditions: human, in vivo
[50] = AUC (0 to infinity) in cancer patient at 40 mg for 60 mins treated 1/1 cycle/day; assay type: ADME, organism-based; parameters: dose 40 mg, time infinity, dosed compound name LY2090314; conditions: human, plasma
[51] = AUC (0 to infinity) in cancer patient at 60 mg for 60 mins treated 1/1 cycle/day; assay type: ADME, organism-based; parameters: dose 60 mg, time infinity, dosed compound name LY2090314; conditions: human, plasma

Radiolabel recovery [1]: 0.31%
Drug metabolism [2]: metabolite_detected
fraction unbound [3]: 0.01
Radiolabel recovery [4]: 1.78%
Radiolabel recovery [5]: 82.76%
Radiolabel recovery [6]: 36.09%
half-life [7]: 0.358 h
Radiolabel recovery [8]: 91.8%
Radiolabel recovery [9]: 96.7%
Radiolabel recovery [10]: 0.73%
Radiolabel recovery [11]: 0.8%
Radiolabel recovery [12]: 2.03%
AUC(0-inf) [13]: 3230 ng·h/mL
CL [14]: 5.62 mL/min/kg
Cmax [15]: 2080 ng/mL
beta t1/2 [16]: 7.25 h
Tmax [17]: 0.5 h
clearance [18]: 57.5 mL/min/kg
Radiolabel recovery [19]: 19.8%
Radiolabel recovery [20]: 85.2%
Radiolabel recovery [21]: 2.4%
Drug metabolism [22]: metabolite_not_detected
Drug metabolism [23]: metabolite_detected
Radiolabel recovery [24]: 0.35%
Cmax [25]: 122 ng/mL
Cmax [26]: 603 ng/mL
Cmax [27]: 881 ng/mL
Tmax [28]: 0.95 h
Tmax [29]: 0.55 h
half-life [30]: 2.6 h
Compound recovery [31]: 1.6%
fraction unbound [32]: 0.03
Radiolabel recovery [33]: 2.43%
Radiolabel recovery [34]: 6.75%
Radiolabel recovery [35]: 1.82%
Radiolabel recovery [36]: 1.94%
Radiolabel recovery [37]: 85.8%
AUC(0-inf) [38]: 1870 ng·h/mL
AUC(0-inf) [39]: 1570 ng·h/mL
AUC(0-inf) [40]: 2190 ng·h/mL
clearance [41]: 688 mL/min
clearance [42]: 633 mL/min
Vd [43]: 89.7 L
Vd [44]: 77.5 L
Vd [45]: 79.3 L
Vd [46]: 66 L
half-life [47]: 2.24 h
half-life [48]: 3.15 h
half-life [49]: 2.68 h
AUC(0-inf) [50]: 976 ng·h/mL
AUC(0-inf) [51]: 1600 ng·h/mL
SMILES: O=C1NC(=O)C(c2cnc3ccccn23)=C1c1cn2c3c(cc(F)cc13)CN(C(=O)N1CCCCC1)CC2 [LY-2090314]
